Results published in PubChem BioAssay (NCI).
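96-well plates; 48 h exposure; 5 concentrations. Endpoints by linear interpolation between flanking doses. Not reached: highest tested concentration assigned. Here, GI50 denotes the concentration required for 50% inhibition of growth. Definition used: TGI = concentration required for complete inhibition of growth.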

Tests used:
Assay in all cases: NCI-60 cell line screen, 48 h; in the data active = GI50 below about 0.43 µM; inactive = the rest
OVCAR-3 ovarian = system: OVCAR-3 ovarian
LOX IMVI melanoma = system: LOX IMVI melanoma
MDA-MB-231 breast = system: MDA-MB-231 breast
SF-268 CNS = system: SF-268 CNS
HCT-15 colon = system: HCT-15 colon
M14 melanoma = system: M14 melanoma
COLO 205 colon = system: COLO 205 colon
HOP-92 NSCLC = system: HOP-92 NSCLC
HCC-2998 colon = system: HCC-2998 colon
MDA-MB-435 = system: MDA-MB-435
SW-620 colon = system: SW-620 colon
UACC-62 melanoma = system: UACC-62 melanoma
DU-145 prostate = system: DU-145 prostate
KM12 colon = system: KM12 colon
SK-MEL-5 melanoma = system: SK-MEL-5 melanoma
SF-295 CNS = system: SF-295 CNS
786-0 renal = system: 786-0 renal
HT29 colon = system: HT29 colon
OVCAR-4 ovarian = system: OVCAR-4 ovarian
SK-MEL-28 melanoma = system: SK-MEL-28 melanoma
NCI/ADR-RES ovarian = system: NCI/ADR-RES ovarian
HS 578T breast = system: HS 578T breast
UO-31 renal = system: UO-31 renal
SK-MEL-2 melanoma = system: SK-MEL-2 melanoma
ACHN renal = system: ACHN renal
HOP-62 NSCLC = system: HOP-62 NSCLC
EKVX NSCLC = system: EKVX NSCLC
SN12C renal = system: SN12C renal
IGROV1 ovarian = system: IGROV1 ovarian
TK-10 renal = system: TK-10 renal
SF-539 CNS = system: SF-539 CNS
OVCAR-8 ovarian = system: OVCAR-8 ovarian
CAKI-1 renal = system: CAKI-1 renal
NCI-H522 lung = system: NCI-H522 lung
SK-OV-3 ovarian = system: SK-OV-3 ovarian
MCF7 breast = system: MCF7 breast
BT-549 breast = system: BT-549 breast
OVCAR-5 ovarian = system: OVCAR-5 ovarian
NCI-H23 lung = system: NCI-H23 lung
NCI-H460 lung = system: NCI-H460 lung
SNB-19 CNS = system: SNB-19 CNS
HCT-116 colon = system: HCT-116 colon
RXF 393 renal = system: RXF 393 renal
PC-3 prostate = system: PC-3 prostate
MALME-3M melanoma = system: MALME-3M melanoma
SNB-75 CNS = system: SNB-75 CNS
MOLT-4 leukemia = system: MOLT-4 leukemia
U251 CNS = system: U251 CNS
A498 renal = system: A498 renal
NCI-H226 lung = system: NCI-H226 lung
A549 NSCLC = system: A549 NSCLC
HL-60(TB) leukemia = system: HL-60(TB) leukemia
K-562 leukemia = system: K-562 leukemia
UACC-257 melanoma = system: UACC-257 melanoma
CCRF-CEM leukemia = system: CCRF-CEM leukemia
RPMI-8226 leukemia = system: RPMI-8226 leukemia

COc1ccc(-c2ccc(-c3ccc(C(=N)N)cn3)s2)cc1Cl
3.02 µM: TGI (OVCAR-5 ovarian) | TGI (NCI-H460 lung)
3 µM: TGI (ACHN renal)
3.01 µM: TGI (HCT-15 colon)
2.73 µM: TGI (MDA-MB-435) | TGI (SW-620 colon)
3.8 µM: TGI (HS 578T breast)
4.46 µM: TGI (NCI-H522 lung)
3.65 µM: TGI (UACC-62 melanoma)
3.51 µM: TGI (PC-3 prostate)
3.84 µM: TGI (NCI/ADR-RES ovarian)
3.29 µM: TGI (MCF7 breast)
3.15 µM: TGI (COLO 205 colon)
3.32 µM: TGI (OVCAR-3 ovarian) | TGI (SK-MEL-5 melanoma)
3.82 µM: TGI (HCT-116 colon)
3.27 µM: TGI (SF-295 CNS)
3.83 µM: TGI (HOP-62 NSCLC)
3.3 µM: TGI (OVCAR-4 ovarian)
3.08 µM: TGI (LOX IMVI melanoma)
inactive: GI50 (OVCAR-3 ovarian) 1.83 µM | GI50 (LOX IMVI melanoma) 1.63 µM | GI50 (MDA-MB-231 breast) 1.62 µM | GI50 (SF-268 CNS) 1.8 µM | GI50 (HCT-15 colon) 1.62 µM | GI50 (M14 melanoma) 1.81 µM | GI50 (COLO 205 colon) 1.41 µM | GI50 (HOP-92 NSCLC) 1.68 µM | GI50 (HCC-2998 colon) 1.89 µM | GI50 (MDA-MB-435) 1.43 µM | GI50 (SW-620 colon) 1.4 µM | GI50 (UACC-62 melanoma) 1.88 µM | GI50 (DU-145 prostate) 1.69 µM | GI50 (KM12 colon) 1.65 µM | GI50 (SK-MEL-5 melanoma) 1.82 µM | GI50 (SF-295 CNS) 1.72 µM | GI50 (786-0 renal) 1.98 µM | GI50 (HT29 colon) 1.18 µM | GI50 (OVCAR-4 ovarian) 1.61 µM | GI50 (SK-MEL-28 melanoma) 1.72 µM | GI50 (NCI/ADR-RES ovarian) 1.92 µM | GI50 (HS 578T breast) 1.79 µM | GI50 (UO-31 renal) 1.59 µM | GI50 (SK-MEL-2 melanoma) 2.01 µM | GI50 (ACHN renal) 1.64 µM | GI50 (HOP-62 NSCLC) 1.79 µM | GI50 (EKVX NSCLC) 1.75 µM | GI50 (SN12C renal) 1.69 µM | GI50 (IGROV1 ovarian) 1.57 µM | GI50 (TK-10 renal) 1.79 µM | GI50 (SF-539 CNS) 1.64 µM | GI50 (OVCAR-8 ovarian) 2.09 µM | GI50 (CAKI-1 renal) 1.65 µM | GI50 (NCI-H522 lung) 1.95 µM | GI50 (SK-OV-3 ovarian) 1.65 µM | GI50 (MCF7 breast) 1.52 µM | GI50 (BT-549 breast) 1.67 µM | GI50 (OVCAR-5 ovarian) 1.55 µM | GI50 (NCI-H23 lung) 1.83 µM | GI50 (NCI-H460 lung) 1.61 µM | GI50 (SNB-19 CNS) 1.73 µM | GI50 (HCT-116 colon) 1.84 µM | GI50 (RXF 393 renal) 1.98 µM | GI50 (PC-3 prostate) 1.77 µM | GI50 (MALME-3M melanoma) 1.3 µM | GI50 (SNB-75 CNS) 1.45 µM
3.03 µM: TGI (CAKI-1 renal)
3.66 µM: TGI (HOP-92 NSCLC)
3.39 µM: TGI (SN12C renal)
3.09 µM: TGI (UO-31 renal)
3.44 µM: TGI (M14 melanoma)
4.58 µM: TGI (OVCAR-8 ovarian)
4.14 µM: TGI (SK-MEL-2 melanoma)
3.72 µM: TGI (NCI-H23 lung)
3.35 µM: TGI (SK-MEL-28 melanoma)
3.11 µM: TGI (SF-539 CNS)
2.87 µM: TGI (HT29 colon)
4.03 µM: TGI (786-0 renal)
3.23 µM: TGI (MDA-MB-231 breast)
3.41 µM: TGI (EKVX NSCLC) | TGI (TK-10 renal) | TGI (SK-OV-3 ovarian)
3.43 µM: TGI (SF-268 CNS) | TGI (BT-549 breast)
3.28 µM: TGI (IGROV1 ovarian)
3.61 µM: TGI (SNB-19 CNS)
3.87 µM: TGI (RXF 393 renal)
3.69 µM: TGI (HCC-2998 colon)
2.9 µM: TGI (MALME-3M melanoma)
2.85 µM: TGI (SNB-75 CNS)
3.06 µM: TGI (DU-145 prostate)
3.04 µM: TGI (KM12 colon)

COc1cc2c(c(OC)c1OC)C(=O)CC2N (centres undefined)
> 100 µM: TGI (OVCAR-3 ovarian) | TGI (LOX IMVI melanoma) | TGI (MOLT-4 leukemia) | TGI (MDA-MB-231 breast) | TGI (SF-268 CNS) | TGI (HCT-15 colon) | TGI (M14 melanoma) | TGI (COLO 205 colon) | TGI (HOP-92 NSCLC) | TGI (HCC-2998 colon) | TGI (U251 CNS) | TGI (MDA-MB-435) | TGI (SW-620 colon) | TGI (UACC-62 melanoma) | TGI (KM12 colon) | TGI (SK-MEL-5 melanoma) | TGI (SF-295 CNS) | TGI (786-0 renal) | TGI (HT29 colon) | TGI (OVCAR-4 ovarian) | TGI (A498 renal) | TGI (SK-MEL-28 melanoma) | TGI (NCI/ADR-RES ovarian) | TGI (HS 578T breast) | TGI (NCI-H226 lung) | TGI (UO-31 renal) | TGI (A549 NSCLC) | TGI (SK-MEL-2 melanoma) | TGI (ACHN renal) | TGI (HL-60(TB) leukemia) | TGI (EKVX NSCLC) | TGI (IGROV1 ovarian) | TGI (TK-10 renal) | TGI (SF-539 CNS) | TGI (K-562 leukemia) | TGI (OVCAR-8 ovarian) | TGI (CAKI-1 renal) | TGI (NCI-H522 lung) | TGI (SK-OV-3 ovarian) | TGI (MCF7 breast) | TGI (BT-549 breast) | TGI (OVCAR-5 ovarian) | TGI (UACC-257 melanoma) | TGI (NCI-H23 lung) | TGI (NCI-H460 lung) | TGI (SNB-19 CNS) | TGI (HCT-116 colon) | TGI (PC-3 prostate) | TGI (MALME-3M melanoma) | TGI (CCRF-CEM leukemia) | TGI (SNB-75 CNS) | TGI (RPMI-8226 leukemia)
